Source: PubChem BioAssay (NCI)
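Dose response: 5 concentrations. Exposure: 48 h. Format: 96-well plates. Endpoint: linear interpolation; highest concentration if not reached. The concentration for 50% growth inhibition is given as GI50. TGI: total growth inhibition.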

Legend:
Assay in all cases: NCI-60 cell line screen, 48 h
XF 498 CNS = tested on: XF 498 CNS
NCI-H522 lung = tested on: NCI-H522 lung
A549 NSCLC = tested on: A549 NSCLC
HCT-116 colon = tested on: HCT-116 colon
SNB-75 CNS = tested on: SNB-75 CNS
UO-31 renal = tested on: UO-31 renal
DLD-1 colon = tested on: DLD-1 colon
K-562 leukemia = tested on: K-562 leukemia
U251 CNS = tested on: U251 CNS
SNB-19 CNS = tested on: SNB-19 CNS
786-0 renal = tested on: 786-0 renal

Row | SMILES | TGI (XF 498 CNS) [µM] | TGI (NCI-H522 lung) [µM] | TGI (A549 NSCLC) [µM] | TGI (HCT-116 colon) [µM] | TGI (SNB-75 CNS) [µM] | TGI (UO-31 renal) [µM] | TGI (DLD-1 colon) [µM] | TGI (K-562 leukemia) [µM] | TGI (U251 CNS) [µM] | TGI (SNB-19 CNS) [µM] | TGI (786-0 renal) [µM] | GI50 (NCI-H522 lung) [µM] | GI50 (A549 NSCLC) [µM] | GI50 (HCT-116 colon) [µM] | GI50 (SNB-75 CNS) [µM] | GI50 (UO-31 renal) [µM] | GI50 (K-562 leukemia) [µM] | GI50 (U251 CNS) [µM] | GI50 (SNB-19 CNS) [µM] | GI50 (786-0 renal) [µM]
1 | N/C(=N\C(=S)N1CCCCC1)N1CCCCC1 | > 100 | > 100 | > 100 | > 100 | > 100 | > 100 | > 100 | > 100 | > 100 | > 100 | > 100 | – | – | – | – | – | – | – | – | –
2 | O=C1C=C(Br)C(=O)C(Br)=C1 | > 100 | > 100 | > 100 | > 100 | > 100 | > 100 | > 100 | > 100 | > 100 | > 100 | > 100 | – | – | – | – | – | – | – | – | –
3 | COc1cc(C2C(C(=O)O)=C(C)Oc3cc4c(cc32)OCO4)cc(OC)c1OC (configuration not stated) | 95.9 | – | > 100 | > 100 | 53.1 | > 100 | > 100 | > 100 | > 100 | > 100 | > 100 | – | – | – | – | – | – | – | – | –
4 | CCCCCN(CCCCC)C(=O)[C@@H](CCC(=O)OCc1ccccc1)NC(=O)c1cc2ccccc2[nH]1 | – | > 100 | > 100 | > 100 | > 100 | > 100 | > 100 | > 100 | > 100 | > 100 | > 100 | – | – | – | – | – | – | – | – | –
5 | COC(=O)C(C(=O)C(=O)Nc1ccccc1OC)c1csc(-n2nc(-c3ccccc3)cc2-c2ccccc2)n1 (configuration not stated) | > 100 | > 100 | > 100 | > 100 | 92.7 | > 100 | > 100 | > 100 | > 100 | > 100 | > 100 | – | – | – | – | – | – | – | – | –
6 | CC(NC1CCC[C@H]1O)c1ccccc1 (mixture of isomers) | > 100 | > 100 | > 100 | > 100 | > 100 | > 100 | – | > 100 | > 100 | > 100 | > 100 | – | – | – | – | – | – | – | – | –
7 | CC(=O)O[C@H]1CCC2[C@@H]3CCC4C(=O)c5oncc5C[C@]4(C)C3CC[C@@]21C (some centres not stated) | > 100 | – | > 100 | – | > 100 | – | > 100 | > 100 | > 100 | – | > 100 | – | – | – | – | – | – | – | – | –
8 | O=C(C#Cc1c[nH]c(=O)[nH]c1=O)c1ccccc1 | – | – | 64.1 | 22 | 33.1 | 31.8 | 23.4 | 14.4 | 26.9 | 32 | 24.6 | – | – | – | – | – | – | – | – | –
9 | Cc1oc2c(c1C(=O)c1ccccc1)C(=O)c1ccccc1C2=O | 5.18 | 5.86 | 40.2 | 8.76 | 13.6 | 22.4 | 10 | 5.89 | 21 | 23.7 | 10.6 | – | – | – | – | – | – | – | – | –
10 | CN(C)CC1(C)CC/C(=C\c2ccc3c(c2)OCO3)C1=O (configuration not stated) | > 100 | > 100 | > 100 | > 100 | > 100 | > 100 | > 100 | > 100 | > 100 | > 100 | > 100 | – | – | – | – | – | – | – | – | –
11 | O=C1CCC(=O)c2cc(Br)ccc2N1 | > 100 | > 100 | > 100 | > 55 | > 100 | > 100 | > 100 | > 100 | > 100 | > 100 | > 100 | – | – | – | – | – | – | – | – | –
12 | Nc1nc(N)c(-c2ccccc2)c(C(=O)Nc2ccc(Cl)c(Cl)c2)n1 | – | – | > 100 | > 100 | > 100 | > 100 | > 100 | > 100 | > 100 | > 100 | > 100 | – | – | – | – | – | – | – | – | –
13 | COC(=O)C1CCc2c(OC)ccc(OC)c2C1=O (configuration not stated) | – | > 100 | > 100 | > 100 | – | > 100 | > 100 | > 100 | > 100 | > 100 | > 100 | – | – | – | – | – | – | – | – | –
14 | C=C(C)C1CC[C@]2(C(=O)O)CCC3(C)[C@H](CCC4[C@@]5(C)CC[C@H](OC6OC(CO)C(O)C6OC6OC(C)C(O)C(O)C6O)[C@@](C)(CO)C5CC[C@]43C)C12 (some centres not stated) | > 100 | > 100 | > 100 | > 100 | > 100 | > 100 | > 100 | > 100 | > 100 | > 100 | > 100 | – | – | – | – | – | – | – | – | –
15 | COCCN1C2=CCCCC2=Nc2c(N)nc(N)nc21 | > 100 | > 100 | > 100 | > 100 | > 100 | > 100 | > 100 | > 100 | > 100 | > 100 | > 100 | – | – | – | – | – | – | – | – | –
16 | CNC(=O)OCc1nc(S(C)=O)n(C)c1COC(=O)NC (configuration not stated) | > 100 | > 100 | > 46.4 | > 100 | > 100 | > 100 | > 100 | > 100 | > 100 | > 100 | > 100 | – | – | – | – | – | – | – | – | –
17 | Cc1cccc(NC(=O)CC2C(=O)Nc3ccccc3S2(=O)=O)c1C (configuration not stated) | – | 33.4 | > 100 | 33.1 | 41.6 | 50.5 | > 100 | > 100 | 78.1 | > 100 | 76.1 | – | – | – | – | – | – | – | – | –
18 | CC(=O)Nc1ccc(/C=c2\sc3nnc(/C=C/c4ccccc4)n3c2=O)cc1 | > 50 | > 50 | > 50 | > 50 | > 50 | > 50 | > 50 | > 50 | > 50 | > 50 | > 50 | – | – | – | – | – | – | – | – | –
19 | C/C=C(/C)C(=O)OC1C=C(CO)C(=O)C(OC(=O)/C(C)=C\C)C1C(C)C (configuration not stated) | – | 2.23 | 2.94 | 1.67 | 2.73 | 2.57 | – | 19.2 | 2.03 | 2.85 | 2.63 | 0.63 | 1.45 | 0.49 | 1.4 | 1.29 | 0.401 | 0.708 | 1.46 | 1.08
